Measured values reported in article PMC10786919, “Design-rules for stapled peptides with in vivo activity and their application to Mdm2/X antagonists” (Nature Communications, 2024).
In brackets after ≈: the same amount, converted by molar mass. Where two headings read alike, the source gives them in different places. Positions of bridges follow the written chain, without caps; N, C: chain ends. Non-standard residues stand in square brackets, D forms with d. Residues, ends and D or L forms follow the SMILES beside them. Lys(N3) = [N-]=[N+]=NCCCC[C@H](N)C(=O)O; R8 = C=CCCCCCC[C@@](C)(N)C(=O)O; Cba = N[C@@H](CC1CCC1)C(=O)O; S5 = C=CCCC[C@](C)(N)C(=O)O; Ahx = NCCCCCC(=O)O; βAla = NCCC(=O)O

Tests used:
[1] = Experimental LogD (partition coefficient); settings: not stated, Partition Coeff LogD
[2] = Lactate dehydrogenase (LDH) release assay; assay type: cell-based
Procedure, shortened: (§1)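 Geometric means of at least three independent biological runs are given for LDH release measured in HCT116 cells stably expressing a p53-driven β-lactamase reporter. Plating density was 8000 cells/well; DMSO in wells was 0.5%.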

HCT116 cells = assay: Lactate dehydrogenase (LDH) release assay; assay type: cell-based
Procedure, shortened: as §1

[3] = Solubility assay (kinetic solubility, PBS pH 7); assay type: physicochemical; settings: pH 7, aqueous buffer, kinetic from dmso stock, pH 7, PBS; read-out: Solubility
Procedure, shortened: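 Next, measure peak areas of sample and standard. Finally, multiply their ratio by the standard concentration to obtain solubility (µM).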

in vitro = assay: in vitro
Procedure, shortened: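 Azido-peptide permeability was read as loss of NanoBRET signal (donor 450 nm, acceptor 610 nm) after adding NanoBret618-azide at 10 μM final.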

[4] = Nanoclick permeability assay EC50
[5] = 0% FBS 4Hr, read-out: LDH: Cytotoxicity assay EC50

Row | Compound | logD [1] | EC50 ([2]; LDH: Cytotoxicity assay EC50) [nM] | LDH: Cytotoxicity assay % Effect (HCT116 cells) [%] | solubility kinetic [3] [µM] | cell entry EC50 (in vitro; [4]) [nM] | EPSA (physchem) [A^2] | EC50 [2, 5] [nM] | LDH: Cytotoxicity assay % Effect (HCT116 cells; 0% FBS 4Hr) [%] | LDH: Cytotoxicity assay % Effect (HCT116 cells; 0% FBS 16Hr) [%] | cell entry EC50 (in vitro) [nM] | EC50 ([2]; 10% FBS 4Hr, read-out: LDH: Cytotoxicity assay EC50) [nM] | LDH: Cytotoxicity assay % Effect (HCT116 cells; 10% FBS 4Hr) [%] | EC50 ([2]; 4 hours, 0% serum, read-out: LDH Cytotoxicity assay EC50) [nM]
1 | CC(=O)N[C@@H](CCCCN=[N+]=[N-])C(=O)N[C@@H](CCCCN)C(=O)NCCCCCC(=O)N[C@H](C(=O)N[C@@H](CO)C(=O)N[C@@H](Cc1ccccc1)C(=O)N[C@]1(C)CCCCCCC=CCCC[C@@](C)(C(=O)N[C@@H](CCC(=O)O)C(=O)N[C@@H](CC(N)=O)C(=O)N[C@@H](Cc2ccccc2)C(N)=O)NC(=O)[C@H](CC(C)C)NC(=O)[C@H](CC(C)C)NC(=O)[C@H](C)NC(=O)[C@H](Cc2c[nH]c3ccccc23)NC(=O)[C@H](Cc2ccc(O)cc2)NC(=O)[C@H](CCC(=O)O)NC1=O)[C@@H](C)O [MP-084] (Ac-[Lys(N3)]K[Ahx]TSF[R8]EYWALL[S5]ENF-NH2; staple 7-14) | 2.56 | > 50700 | 0.08783 | 2 (≈ 4.5 µg/mL) | 74.5 | 187 | – | – | – | – | – | – | –
2 | CC(=O)N[C@@H](CCCCN=[N+]=[N-])C(=O)NCCC(=O)N[C@@H](CC(C)C)C(=O)N[C@@H](Cc1c[nH]cn1)C(=O)N[C@@H](Cc1ccccc1)C(=O)N[C@]1(C)CCCCCCC=CCCC[C@@](C)(C(=O)N[C@@H](CO)C(=O)N[C@@H](C)C(=O)N[C@@H](C)C(N)=O)NC(=O)[C@H](CC2CCC2)NC(=O)[C@H](CCC(N)=O)NC(=O)[C@H](C)NC(=O)[C@H](Cc2c[nH]c3ccccc23)NC(=O)[C@H](Cc2ccc(O)cc2)NC(=O)[C@H](CCC(=O)O)NC1=O [MP-174, AZIDE-ATSP-7041 (T2H)] | 2.84 | – | – | – | – | 225 | > 50000 | 2.115 | 21.18 | 50.6 | – | – | –
3 | CC(=O)N[C@@H](CCCCN=[N+]=[N-])C(=O)NCCC(=O)N[C@@H](CC(C)C)C(=O)N[C@H](C(=O)N[C@@H](Cc1ccccc1)C(=O)N[C@]1(C)CCCCCCC=CCCC[C@@](C)(C(=O)N[C@@H](CO)C(=O)N[C@@H](C)C(=O)N[C@@H](C)C(N)=O)NC(=O)[C@H](CC2CCC2)NC(=O)[C@H](CCC(N)=O)NC(=O)[C@H](C)NC(=O)[C@H](Cc2c[nH]c3ccccc23)NC(=O)[C@H](Cc2ccc(O)cc2)NC(=O)[C@H](Cc2c[nH]cn2)NC1=O)[C@@H](C)O [MP-175, AZIDE-ATSP-7041 (E5H)] | 3.42 | – | – | 2 (≈ 3.96 µg/mL) | – | 214 | > 50000 | 2.645 | 7.95 | 316 | > 50000 | -1.124 | –
4 | CC(=O)N[C@@H](CCCCN=[N+]=[N-])C(=O)NCCC(=O)N[C@@H](CC(C)C)C(=O)N[C@H](C(=O)N[C@@H](Cc1ccccc1)C(=O)N[C@]1(C)CCCCCCC=CCCC[C@@](C)(C(=O)N[C@@H](CO)C(=O)N[C@@H](C)C(=O)N[C@@H](C)C(N)=O)NC(=O)[C@H](CC2CCC2)NC(=O)[C@H](Cc2c[nH]cn2)NC(=O)[C@H](C)NC(=O)[C@H](Cc2c[nH]c3ccccc23)NC(=O)[C@H](Cc2ccc(O)cc2)NC(=O)[C@H](CCC(=O)O)NC1=O)[C@@H](C)O [MP-176, AZIDE-ATSP-7041 (Q9H)] | 2.88 | – | – | 2 (≈ 3.96 µg/mL) | – | 222 | > 50000 | 5.39 | 4.02 | 396 | – | – | –
5 | CC(=O)N[C@@H](CCCCN=[N+]=[N-])C(=O)NCCC(=O)N[C@@H](CC(C)C)C(=O)N[C@H](C(=O)N[C@@H](Cc1ccccc1)C(=O)N[C@]1(C)CCCCCCC=CCCC[C@@](C)(C(=O)N[C@@H](Cc2c[nH]cn2)C(=O)N[C@@H](C)C(=O)N[C@@H](C)C(N)=O)NC(=O)[C@H](CC2CCC2)NC(=O)[C@H](CCC(N)=O)NC(=O)[C@H](C)NC(=O)[C@H](Cc2c[nH]c3ccccc23)NC(=O)[C@H](Cc2ccc(O)cc2)NC(=O)[C@H](CCC(=O)O)NC1=O)[C@@H](C)O [MP-177, AZIDE-ATSP-7041 (S12H)] (Ac-[Lys(N3)][βAla]LTF[R8]EYWAQ[Cba][S5]HAA-NH2; staple 6-13) | 2.74 | – | – | 6.5 (≈ 13.1 µg/mL) | – | 227 | > 50000 | 4.985 | – | 149 | – | – | –
6 | CC(=O)N[C@@H](CCCCN=[N+]=[N-])C(=O)NCCC(=O)N[C@@H](CCCCN)C(=O)N[C@H](C(=O)N[C@@H](Cc1ccccc1)C(=O)N[C@]1(C)CCCCCCC=CCCC[C@@](C)(C(=O)N[C@@H](CO)C(=O)N[C@@H](C)C(=O)N[C@@H](C)C(N)=O)NC(=O)[C@H](CC2CCC2)NC(=O)[C@H](CCC(N)=O)NC(=O)[C@H](C)NC(=O)[C@H](Cc2c[nH]c3ccccc23)NC(=O)[C@H](Cc2ccc(O)cc2)NC(=O)[C@H](CCC(=O)O)NC1=O)[C@@H](C)O [MP-546, AZIDE-ATSP-7041 (L1K)] | 2.85 | – | – | 2 (≈ 3.97 µg/mL) | – | 229 | > 50000 | 34.42 | 13.56 | 210 | – | – | –
7 | CC(=O)N[C@@H](CCCCN=[N+]=[N-])C(=O)NCCC(=O)N[C@@H](CC(C)C)C(=O)N[C@@H](CCCCN)C(=O)N[C@@H](Cc1ccccc1)C(=O)N[C@]1(C)CCCCCCC=CCCC[C@@](C)(C(=O)N[C@@H](CO)C(=O)N[C@@H](C)C(=O)N[C@@H](C)C(N)=O)NC(=O)[C@H](CC2CCC2)NC(=O)[C@H](CCC(N)=O)NC(=O)[C@H](C)NC(=O)[C@H](Cc2c[nH]c3ccccc23)NC(=O)[C@H](Cc2ccc(O)cc2)NC(=O)[C@H](CCC(=O)O)NC1=O [MP-547, AZIDE-ATSP-7041 (T2K)] | 3.02 | – | – | 3 (≈ 5.99 µg/mL) | – | 229 | > 50000 | 26.9 | 15.73 | 72.2 | – | – | –
8 | CC(=O)N[C@@H](CCCCN=[N+]=[N-])C(=O)NCCC(=O)N[C@@H](CC(C)C)C(=O)N[C@H](C(=O)N[C@@H](Cc1ccccc1)C(=O)N[C@]1(C)CCCCCCC=CCCC[C@@](C)(C(=O)N[C@@H](CO)C(=O)N[C@@H](C)C(=O)N[C@@H](C)C(N)=O)NC(=O)[C@H](CC2CCC2)NC(=O)[C@H](CCC(N)=O)NC(=O)[C@H](C)NC(=O)[C@H](Cc2c[nH]c3ccccc23)NC(=O)[C@H](Cc2ccc(O)cc2)NC(=O)[C@H](CCCCN)NC1=O)[C@@H](C)O [MP-548, AZIDE-ATSP-7041 (E5K)] | 3.25 | – | – | 5 (≈ 9.85 µg/mL) | – | 213 | 12300 | 84.33 | 14.03 | 1020 | – | – | 12200
9 | CC(=O)N[C@@H](CCCCN=[N+]=[N-])C(=O)NCCC(=O)N[C@@H](CC(C)C)C(=O)N[C@H](C(=O)N[C@@H](Cc1ccccc1)C(=O)N[C@]1(C)CCCCCCC=CCCC[C@@](C)(C(=O)N[C@@H](CO)C(=O)N[C@@H](C)C(=O)N[C@@H](C)C(N)=O)NC(=O)[C@H](CC2CCC2)NC(=O)[C@H](CCC(N)=O)NC(=O)[C@H](CCCCN)NC(=O)[C@H](Cc2c[nH]c3ccccc23)NC(=O)[C@H](Cc2ccc(O)cc2)NC(=O)[C@H](CCC(=O)O)NC1=O)[C@@H](C)O [MP-549, AZIDE-ATSP-7041 (A8K)] | 2.75 | – | – | 4.5 (≈ 9.12 µg/mL) | – | 220 | > 50000 | 7.105 | 45.26 | 233 | – | – | –
10 | CC(=O)N[C@@H](CCCCN=[N+]=[N-])C(=O)NCCC(=O)N[C@@H](CC(C)C)C(=O)N[C@H](C(=O)N[C@@H](Cc1ccccc1)C(=O)N[C@]1(C)CCCCCCC=CCCC[C@@](C)(C(=O)N[C@@H](CO)C(=O)N[C@@H](C)C(=O)N[C@@H](C)C(N)=O)NC(=O)[C@H](CC2CCC2)NC(=O)[C@H](CCCCN)NC(=O)[C@H](C)NC(=O)[C@H](Cc2c[nH]c3ccccc23)NC(=O)[C@H](Cc2ccc(O)cc2)NC(=O)[C@H](CCC(=O)O)NC1=O)[C@@H](C)O [MP-550, AZIDE-ATSP-7041 (Q9K)] | 3.08 | – | – | 4 (≈ 7.88 µg/mL) | – | 217 | > 50000 | 7.145 | 4.1 | 437 | – | – | –
11 | CC(=O)N[C@@H](CCCCN=[N+]=[N-])C(=O)NCCC(=O)N[C@@H](CC(C)C)C(=O)N[C@H](C(=O)N[C@@H](Cc1ccccc1)C(=O)N[C@]1(C)CCCCCCC=CCCC[C@@](C)(C(=O)N[C@@H](CCCCN)C(=O)N[C@@H](C)C(=O)N[C@@H](C)C(N)=O)NC(=O)[C@H](CC2CCC2)NC(=O)[C@H](CCC(N)=O)NC(=O)[C@H](C)NC(=O)[C@H](Cc2c[nH]c3ccccc23)NC(=O)[C@H](Cc2ccc(O)cc2)NC(=O)[C@H](CCC(=O)O)NC1=O)[C@@H](C)O [MP-551, AZIDE-ATSP-7041 (S12K)] (Ac-[Lys(N3)][βAla]LTF[R8]EYWAQ[Cba][S5]KAA-NH2; staple 6-13) | 2.83 | – | – | 2 (≈ 4.02 µg/mL) | – | 216 | > 50000 | 3.03 | -1.59 | 253 | – | – | –
12 | CC(C)C[C@@H]1NC(=O)[C@H](C)NC(=O)[C@H](Cc2c[nH]c3ccccc23)NC(=O)[C@H](Cc2ccc(O)cc2)NC(=O)[C@H](CCC(=O)O)NC(=O)[C@](C)(NC(=O)[C@H](Cc2ccccc2)NC(=O)[C@H](CO)NC(=O)[C@@H](NC(=O)[C@H](CO)NC(=O)CNC(=O)[C@H](CO)NC(=O)[C@@H](N)CCCCN=[N+]=[N-])[C@@H](C)O)CCCCCCC=CCCC[C@@](C)(C(N)=O)NC(=O)[C@H](CC(C)C)NC1=O [MP-75496] | 2.46 | > 50600 | – | 10 (≈ 18.1 µg/mL) | 518 | 236 | – | – | – | – | – | – | –
